Consider 7 compounds from patent US20080119521A1, “Butyrlcholinesterase Selective Inhibitors” (priority 2004, published 2008).

By IC50 is commonly meant the point on the concentration scale where inhibition reaches its midpoint.

The subject of data set [1] is human neuroblastoma cell line SH-SY5Y. In words: Toxicity measurement, LDH release cytotoxicity. It is filed as cell-based. The following applies: SH-SY5Y cells, 24 hours exposure. On the procedure:
The cytotoxicity effect of the molecules was tested in the human neuroblastoma cell line SH-SY5Y. These cells were cultured in 96-well plates in a 1:1 mixture of Ham's F12 nutrients and essential medium (MEM), supplemented with 10% fetal bovine serum and 1% penicillin/streptomycin, and grown in a 5% CO2 humidified incubator at 37° C.
The cells were plated at 10^4 cells for each well, at least, 48 hours before the toxicity measure. Cells were exposed for 24 hours to the compounds at different concentrations (from 10^−5 to 10^−9), quantitative assessment of cell death was made by measurement of the intracellular enzyme lactate dehydrogenase (LDH) (citotoxicity detection kit, Roche). The quantity of LDH was measured and evaluated in a microplate reader Anthos 2010, at 492 and 620 nm. Controls were taken as 100% viability.
A general note: LDH in the medium is a marker of cell lysis.

The target in a further data set is T1, BuChE from human serum (Homo sapiens, UniProt P06276).
T1 construct: 0.1 unit/ml BuChE from human serum; from tissue; host or cells: human serum
T1 sequence (P06276 29-602): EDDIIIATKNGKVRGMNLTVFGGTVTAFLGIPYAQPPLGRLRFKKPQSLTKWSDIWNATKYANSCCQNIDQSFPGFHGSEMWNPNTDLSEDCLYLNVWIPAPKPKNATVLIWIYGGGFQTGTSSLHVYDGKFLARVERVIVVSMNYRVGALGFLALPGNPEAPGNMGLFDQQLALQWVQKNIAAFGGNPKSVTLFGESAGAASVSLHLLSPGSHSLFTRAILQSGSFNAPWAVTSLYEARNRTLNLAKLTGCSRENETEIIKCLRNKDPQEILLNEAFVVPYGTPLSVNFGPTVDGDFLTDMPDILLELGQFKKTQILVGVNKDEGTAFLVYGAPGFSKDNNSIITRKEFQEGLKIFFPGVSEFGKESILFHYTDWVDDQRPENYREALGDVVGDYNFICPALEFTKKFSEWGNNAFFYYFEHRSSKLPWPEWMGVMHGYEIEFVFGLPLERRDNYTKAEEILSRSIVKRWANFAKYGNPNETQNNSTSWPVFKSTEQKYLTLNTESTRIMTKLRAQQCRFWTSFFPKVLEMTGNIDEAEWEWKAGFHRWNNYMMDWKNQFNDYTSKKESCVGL
Description: Butyrylcholinesterase (BuChE) inhibition, Ellman colorimetric method. It is filed as biochemical. On the procedure: Butyrylcholinesterase (BuChE) Inhibition (from Human Serum)
BuChE inhibitory activity was evaluated at 30° C. by the colorimetric method reported by Ellman [Ellman, G. L.; Courtney, K. D.; Andres, B.; Featherstone, R. M. Biochem. Pharmacol. 1961, 7, 88-95]. The assay solution consisted of 0.1 unit/ml BuChE from human serum, 0.1 M sodium phosphate buffer pH 8, 0.3 mM 5,5′-dithiobis (2-nitrobenzoic acid) (DTNB, Ellman's reagent), and 0.5 mM butyrylthiocholine iodide as the substrate of the enzymatic reaction. Enzyme activity was determined by measuring the absorbance at 405 nm during 5 minutes with a microplate reader Digiscan 340T. The tested compounds were preincubated with the enzyme for 10 minutes at 30° C. The reaction rate was calculated with, at least, triplicate measurements. The IC50 is defined as the concentration of each compound that reduces a 50% the enzymatic activity with respect to that without inhibitors.

The target in data set [2] is T2, AChE from bovine erythrocytes (Bos taurus, UniProt P23795).
T2 construct: 0.2 unit/ml AChE (Sigma Chemical Co. from bovine erythrocytes); purchased Sigma Chemical Co; host or cells: bovine erythrocytes
T2 sequence (P23795 31-614 isoform P23795-2 limits assumed): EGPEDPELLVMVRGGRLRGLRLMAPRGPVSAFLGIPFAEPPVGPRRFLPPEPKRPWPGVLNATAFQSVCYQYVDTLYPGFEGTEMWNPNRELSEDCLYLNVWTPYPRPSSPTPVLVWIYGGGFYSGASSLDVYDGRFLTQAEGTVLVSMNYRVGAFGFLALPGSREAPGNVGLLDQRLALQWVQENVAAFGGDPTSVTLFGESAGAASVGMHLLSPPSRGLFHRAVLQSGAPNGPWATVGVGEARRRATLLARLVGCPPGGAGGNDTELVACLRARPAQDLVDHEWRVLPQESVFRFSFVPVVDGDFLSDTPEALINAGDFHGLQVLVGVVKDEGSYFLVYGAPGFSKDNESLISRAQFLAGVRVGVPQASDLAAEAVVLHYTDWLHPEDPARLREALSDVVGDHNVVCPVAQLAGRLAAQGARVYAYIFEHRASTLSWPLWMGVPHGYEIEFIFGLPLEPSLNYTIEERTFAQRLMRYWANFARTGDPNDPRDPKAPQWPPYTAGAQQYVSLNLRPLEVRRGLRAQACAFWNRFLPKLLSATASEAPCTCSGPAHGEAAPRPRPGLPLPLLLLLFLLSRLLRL
Description: Acetylcholinesterase (AChE) inhibition, Ellman colorimetric method. Type of data set: biochemical. On the procedure: Acetylcholinesterase (AChE) Inhibition (from Bovine Erythrocytes)
AChE inhibitory activity was evaluated at 30° C. by the colorimetric method reported by Ellman [Ellman, G. L.; Courtney, K. D.; Andres, B.; Featherstone, R. M. Biochem. Pharmacol. 1961, 7, 88-95]. The assay solution consisted of 0.1 M phosphate buffer pH 8, 0.3 mM 5,5′-dithiobis (2-nitrobenzoic acid) (DTNB, Ellman's reagent), 0.2 unit/ml AChE (Sigma Chemical Co. from bovine erythrocytes), and 0.5 mM acetylthiocholine iodide as the substrate of the enzymatic reaction. The compounds tested were added to the assay solution and pre incubated with the enzyme for 5 min at 30° C. After that period, the substrate was added. The absorbance changes at 405 nm were recorded for 5 min with a microplate reader Digiscan 340T, the reaction rates were compared, and the percent inhibition due to the presence of test compounds was calculated. The reaction rate was calculated with, at least, triplicate measurements, and the percent inhibition due to the presence of test compound was calculated relative to the compound-free control. The compound concentration producing 50% of AChE inhibition (IC50) was determined.
(In general: In Ellman's method for cholinesterases, released thiocholine reacts with DTNB.)

Another data set deals with AChE peripheral site (Homo sapiens, UniProt P22303). In words: Propidium competition, fluorescence. It is filed as binding. The following applies: 5 μM AChE incubated at least 6 hours, 20 μM propidium iodide, 1 mM Tris/HCl pH 8.0. The protocol:
Fluorescence was measured in a Fluostar optima plate reader (BMG). Measurements were carried out in 100 μl solution volume, in 96-well plates. The buffer used was 1 mM Tris/HCl, pH 8.0. 5 μM AchE was incubated, at least 6 hours, with the molecules at different concentrations. 20 μM propidium iodide was added 10 min before fluorescence measurement. The excitation wavelength was 485 nm, and that of emission, 620 nm.

Like-named read-outs stand apart in the source and are kept apart here.

Chain of AChE peripheral site (P22303 32-614): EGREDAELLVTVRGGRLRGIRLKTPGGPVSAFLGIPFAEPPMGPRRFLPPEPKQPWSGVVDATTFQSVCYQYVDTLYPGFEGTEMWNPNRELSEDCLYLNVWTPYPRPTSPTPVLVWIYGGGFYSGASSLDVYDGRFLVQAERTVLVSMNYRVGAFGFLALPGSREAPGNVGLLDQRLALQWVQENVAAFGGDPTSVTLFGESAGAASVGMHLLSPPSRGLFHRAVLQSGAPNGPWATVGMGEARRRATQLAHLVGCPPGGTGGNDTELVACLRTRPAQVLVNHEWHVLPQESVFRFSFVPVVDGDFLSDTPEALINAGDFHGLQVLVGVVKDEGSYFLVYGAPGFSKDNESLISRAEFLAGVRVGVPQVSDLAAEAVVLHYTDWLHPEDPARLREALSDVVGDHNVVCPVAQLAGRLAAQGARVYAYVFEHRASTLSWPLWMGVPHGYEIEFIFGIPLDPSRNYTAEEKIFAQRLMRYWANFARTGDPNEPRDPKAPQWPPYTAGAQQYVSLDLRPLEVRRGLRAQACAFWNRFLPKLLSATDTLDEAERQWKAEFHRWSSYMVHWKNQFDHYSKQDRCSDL

As for `O=C(NCCC1CCN(Cc2ccccc2)CC1)OCCc1c[nH]c2ccccc12` [Compound 7, [2-(1-Benzyl-piperidin-4-yl)-ethyl]-carbamic acid 2-(1H-indol-3-yl)-ethyl ester], the Toxicity in data set [1] was above 100 µM. The IC50 at BuChE from human serum (BuChE from human serum, 30° C., pH 8, 10 min preincubation, butyrylthiocholine iodide substrate, read-out: IC50 BuChE) stood at 30 nM; in data set [2] (AChE from bovine erythrocytes, 30° C., pH 8, 5 min preincubation, acetylthiocholine iodide substrate, read-out: IC50 AChE), 1000 nM.
The compound `O=C(CCCc1c[nH]c2ccccc12)NCCC1CCN(Cc2ccccc2)CC1` [Compound 6, N-[2-(1-Benzyl-piperidin-4-yl)-ethyl]-4-(1H-indol-3-yl)-butyramide] registered a Propidium competition on AChE peripheral site of 100 µM. Also, the Toxicity in data set [1] was above 100 µM. For the same compound, the IC50 at BuChE from human serum is 5 nM; in data set [2], 300 nM.
Consider `O=C(Cc1c[nH]c2ccccc12)NCCC1CCN(Cc2ccccc2)CC1` [Compound 1, N-[2-(1-Benzyl-piperidin-4-yl)-ethyl]-2-(lH-indol-3-yl)-acetamide], for which the Propidium competition on AChE peripheral site amounted to 1 µM. The Toxicity in data set [1] was above 100 µM. The values for the IC50 (at BuChE from human serum; in data set [2]) were 0.8 nM and 200 nM, respectively.
On the same counts, the results for `O=C(Cc1c[nH]c2ccc(Br)cc12)NCCC1CCN(Cc2ccccc2)CC1` [Compound 4, N-[2-(1-Benzyl-piperidin-4-yl)-ethyl]-2-(5-bromo-1H-indol-3-yl)-acetamide] are 1 µM, above 100 µM, 0.25 nM and 250 nM.
For `Cn1cc(CC(=O)NCCC2CCN(Cc3ccccc3)CC2)c2ccccc21` [Compound 2, N-[2-(1-Benzyl-piperidin-4-yl)-ethyl]-2-(1-methyl-1H-indol-3-yl)-acetamide], in that order: 100 µM, above 100 µM, 1 nM and 400 nM.
In turn, `O=C(CCc1c[nH]c2ccccc12)NCCC1CCN(Cc2ccccc2)CC1` [Compound 5, N-[2-(1-Benzyl-piperidin-4-yl)-ethyl]-3-(1H-indol-3-yl)-propionamide] returned a Propidium competition on AChE peripheral site of 100 µM. For the same compound, the Toxicity in data set [1] is above 100 µM. Moreover, the concentration for half-maximal inhibition (IC50) at BuChE from human serum amounted to 0.05 nM; in data set [2], 2000 nM. The “selectivity with respect to AChE” value on BuChE from human serum (BuChE versus AChE) was 5 orders of magnitude.
At AChE peripheral site, `Cc1[nH]c2ccccc2c1CC(=O)NCCC1CCN(Cc2ccccc2)CC1` [Compound 3, N-[2-(1-Benzyl-piperidin-4-yl)-ethyl]-2-(2-methyl-1H-indol-3-yl)-acetamide] returned a Propidium competition of 100 µM. Moreover, the Toxicity in data set [1] was above 100 µM. Also, the results for the IC50 (against BuChE from human serum; in data set [2]) were 2 nM and 200 nM, respectively.
